Tested on: acetic acid-induced visceral pain
Assay: acetic acid-induced visceral pain mouse model (writhing/stretch count)
Format: in vivo, mice (male Harlan ICR)
Conditions: for effect on inhibiting visceral pain (stretches vs. control mice), in words: doses from 0.37 mg/kg to 30.0 mg/kg SC; for number of stretches (writhes) per 30 minutes: 0.75% acetic acid IP half an hour later, control mice typically stretch 65-70 times/30 minutes
Description: The acetic acid-induced visceral pain mouse model test is, of course, well known to those skilled in the art and is described in the seminal paper by Collier et al [Collier, H. O. J., L. C. Dinneen, C. A. Johnson and C. Schneider 1968. The abdominal constriction response and its suppression by analgesic drugs in the mouse.
The drugs are identified below as Monoamine #1-6. Five groups of five mice (male Harlan ICR, weight 35-50 g) were used to test each of the drugs. Control animals were tested as part of each experiment as well. The mice in each group were weighed and identified with a tail marking and were given a single dose of one of the drugs at 1 ml/100 g SC. The first group served as controls and was given only saline; the other five groups were given a drug at five doses ranging from 0.37 mg/kg up to 30.0 mg/kg. After the drug was administered, the mice were allowed to acclimate for one-half hour and were then given an IP injection of 0.75% Glacial acetic acid at a volume of 1 ml/100 g. Once the acid was injected, the mice were put into individual clear containers for observation. The mice were then watched continuously for one-half hour and the number of “stretches” or writhes were counted. The animal was considered to be stretching when its front legs stepped forward and at least one hind leg was extended out behind them. At the end of the thirty-minute observational period the mice were sacrificed with CO2. The same procedure was followed for all of the different compounds examined.

CCNCCCCc1ccccc1O [Monoamine #3]
effect on inhibiting visceral pain (stretches vs. control mice), in words: significantly fewer stretches than the control mice
effect on inhibiting visceral pain (stretches vs. control mice), in words (listed as #3): effective at all of the doses tested

CCNCCc1ccccc1O.Cl [Monoamine #1, 2-[2-(Ethylamino)ethyl]phenol Hydrochloride]
number of stretches (writhes) per 30 minutes (10 mg/kg SC single dose): 25.9±14.8 stretches/30 minutes
number of stretches (writhes) per 30 minutes (30 mg/kg SC single dose): 13.1±11.7 stretches/30 minutes
effect on inhibiting visceral pain (stretches vs. control mice), in words (Hydrochloride): statistical significance at all doses tested
effect on inhibiting visceral pain (stretches vs. control mice), in words (listed as #1, Hydrochloride): effective at all of the doses tested

CCN(CCCc1ccccc1O)Cc1ccccc1.CS(=O)(=O)O [Monoamine #4]
effect on inhibiting visceral pain (stretches vs. control mice), in words: not effective against visceral pain
effect on inhibiting visceral pain (stretches vs. control mice), in words (listed as #4): little/no effect

CCNCCCc1ccccc1O.Cl [Monoamine #2]
number of stretches (writhes) per 30 minutes (30 mg/kg SC single dose): 47.7±22.4 stretches/30 minutes
effect on inhibiting visceral pain (stretches vs. control mice), in words: only a minimal effect on inhibiting visceral pain
effect on inhibiting visceral pain (stretches vs. control mice), in words (listed as #2): little/no effect

CCCCCCNC1CCCCC1 [Monoamine #6, N-hexylcyclohexanamine]
effect on inhibiting visceral pain (stretches vs. control mice), in words: not effective against visceral pain
effect on inhibiting visceral pain (stretches vs. control mice), in words (listed as #6): little/no effect

CCNCCCCC1CCCCC1 [Monoamine #5, N-(4-cyclohexylbutyl)-N-ethylamine]
effect on inhibiting visceral pain (stretches vs. control mice), in words: significantly fewer stretches than the control mice
effect on inhibiting visceral pain (stretches vs. control mice), in words (listed as #5): effective at all of the doses tested
